Assay results taken from article PMC6028718, “Lanthanide-Dependent Methanol Dehydrogenases of XoxF4 and XoxF5 Clades Are Differentially Distributed Among Methylotrophic Bacteria and They Reveal Different Biochemical Properties” (Frontiers in Microbiology, 2018).

System: T1, XoxF5
T1 construct: His-tagged, expressed in native host Methylomonas sp; LW13 (wild-type) grown with Ce3+; Ni-NTA purified
Test: PMS-mediated DCPIP reduction at […] nm
Format: biochemical
Settings: pH 9.0, 45 mM NH4Cl, ~26°C, 1 mM PMS, 150 μM DCPIP; Ce3+-grown enzyme; read-out: Methylomonas sp. LW13 XoxF5 / Km

Row | Km [µM] | SMILES
1 | 40 ± 37 | CCCCCCO [Hexanol]
2 | 85 ± 44 | CCO [Ethanol]
3 | 96 ± 70 | CCCCO [Butanol]

Row | SMILES | Km [µM]
4 | CO [Methanol] | 39 ± 11
